In ChEMBL document CHEMBL5370573, “Isolation of Hydrazide-alkenes with Different Amino Acid Origins from an Azoxy-alkene-Producing Mutant of Streptomyces rochei 7434AN4” (J Nat Prod, 2023):
In brackets after ≈: the same amount, converted by molar mass.

What was measured:
[1] = Inhibition of quorum sensing system in Chromobacterium violaceum CV026 assessed as reduction in violacein production at 1 mg/ml measured after 24 hrs relative to control
[2] = Inhibition of quorum sensing system in Chromobacterium violaceum CV026 assessed as reduction in violacein production measured after 24 hrs

| inhibition [1] | IC50 [2] | Structure (SMILES) |
| --- | --- | --- |
| 40% |  | CCCC/C=C\NN(C(C)=O)C(=O)C(C)C |
|  | 750 µg/mL (≈ 3.47 mM) | CCCC/C=C\[N+]([O-])=N\[C@H](C)[C@H](O)CO |
| 40% |  | CCCC/C=C\NN(C(C)=O)C(=O)C(C)CC (stereo not drawn) |
